According to patent EP0299533B1, “High potency sweetening agents” (THE NUTRASWEET COMPANY (a Delaware corporation), priority 1987, dated 1989):
Where a name gives a salt, the structure may show the parent alone.

Key:
[1] = Taste test: compound was tasted for sweetness; type: in vivo
Procedure: A mixture of 5-aminomethyltetrazole (0.50 g, 5.05 mmol), sodium hydroxide (0.20 g, 5.00 mmol) and 1.5 ml of water was added to a solution of N-cyclooctyl-N′-(4-cyanophenyl)-S-methylisothiourea (1.52 g, 5.05 mmol) in 15 ml of absolute ethanol. The mixture was heated to 70° for 20 hours. After cooling, the solution was concentrated to dryness and the residue was dissolved in 20 ml of water. The resulting solution was washed with dichloromethane (3 x 20 ml) and then neutralized with a 1 N HCl solution to bring its pH to 7.5. The desired guanidine compound precipitated and was separated out by filtration to give 1.2 g (70%) of white solid. PMR (CD₃OD) δ 7.75 (d, J=8 Hz, 2H), 7.41 (d, J=8 Hz, 2H), 4.70 (s, 2H), 3.82 (m, 1H) and 1.96-1.46 (m, 14H). CMR (DMSO-D6) δ 158.3, 153.3, 144.0, 133.7, 122.0, 119.0, 105.5, 52.8, 37.8, 31.2, 26.8, 24.6 and 22.9. Analysis calculated for C₁₈H₂₄N₈ (0.6 H₂O): C, 59.52; H, 6.99; N, 30.85. Found: C, 59.38; H, 7.07; N, 31.18. The compound was tasted and was sweeet at a concentration of 10 ug/ml.
All the compounds presented in Examples 1 through 42 were tasted and were sweet.

[2] = Stability in aqueous sodium phosphate buffer at pH 3, percent remaining by HPLC; type: physicochemical; conditions: for half-life: phosphate buffer
Procedure: Compound 1 above was dissolved in an aqueous sodium phosphate buffer at a pH of 3 at a concentration of 30 µg/ml. The buffer was prepared by adding concentrated phosphoric acid to sodium phosphate […] until the pH was 3.0. This solution was then maintained at 90°C for 6 days. The percent of compound 1 remaining after 6 days was 98%. […] The half-life was estimated to be 177 days in this buffer at 90°C. The stability of the glycine derivative of this compound, i.e., 1′-N-[N-cyclooctylamino(4-cyanophenylimino)methyl]-glycine was determined in the same way as Cpd. 1 except at 70°C and 50°C instead of 90°C. […] The calculated half-life at 90°C is about 2 days.

With `N#Cc1ccc(N=C(NCc2nnn[nH]2)NC2CCCCCCC2)cc1` [Example 1 HCl salt] the taste when tasted ([1]; no concentration given) was “sweet”.

With `N#Cc1ccc(NC(=NCc2nnn[nH]2)NC2CCCCCCC2)cc1` [Example 1, 1'-N-[N-Cyclooctylamino (4-Cyanophenylimino)methyl]-5-Aminomethyltetrazole] the “concentration at which the compound was tasted and was sweet” value [1] was 10 µg/mL, the remaining at 144 h ([2]; aqueous sodium phosphate buffer pH 3, 30 µg/ml, 90°C, 6 days, HPLC, read-out: percent of compound remaining after 6 days) was 98% and the half-life ([2]; pH 3, buffer pH 3, 90°C, estimated) was 177 days.

With `N#Cc1ccc(NC(=NCc2nnn[nH]2)NC2CC3CCC(=O)CC3C2)cc1` (stereo not drawn) [Example 42, 1′-N-[N′-2-Amino-6-oxo-cis-hydrindane (4-Cyanophenylimino)methyl]-5-Aminomethyltetrazole] the “concentration at which the compound was tasted and was sweet” value [1] was 100 µg/mL.

Compound `N#Cc1ccc(NC(=NCC(=O)O)NC2CCCCCCC2)cc1` [glycine derivative, 1′-N-[N-cyclooctylamino(4-cyanophenylimino)methyl]-glycine, reference compound] has a half-life ([2]; pH 3, buffer pH 3, 50°C) of 13 days and a half-life ([2]; pH 3, buffer pH 3, 70°C) of 5 days.
